Read-outs that look alike come from different tables or passages of the source.
What was measured:
[1] = tested on: multiple myeloma cell lines and primary patient tumor cells; conditions: including those resistant to conventional and novel prior therapies; cited from earlier work
[2] = tested on: Hashimoto's thyroiditis model; conditions: autoantibody-driven Hashimoto's thyroiditis model; cited from earlier work
[3] = tested on: murine DSS-induced colitis model; conditions: cited from earlier work
MRL/lpr lupus model = conditions: cited from earlier work
[4] = tested on: murine collagen-induced arthritis; conditions: cited from earlier work
Th1/17 differentiation [5] = conditions: mouse; cited from earlier work
Th1/17 differentiation [6] = conditions: human; cited from earlier work
[7] = target: immunoproteasome LMP7/B5i subunit (Homo sapiens, UniProt P28062); test: Caliper-based proteasome enzymatic activity assay, LMP7; format: biochemical; conditions: human recombinant immunoproteasome 0.3 nM, FAM-labeled peptide substrate 1 μM, rt 3 h; read-out: LMP7 subunit IC50
[8] = target: constitutive proteasome β5c unit (Homo sapiens, UniProt P28074); test: Caliper-based proteasome enzymatic activity assay, β5c; format: biochemical; conditions: human recombinant constitutive proteasome 0.3 nM, FAM-labeled peptide substrate 1 μM, rt 3 h; read-out: β5c subunit IC50
PBMC/LMP7 [9] = target: T1, PBMC/LMP7 (Homo sapiens, UniProt P28062); test: Proteasome-Glo inhibition of proteasome activity in cells, PBMC/LMP7; format: cell-based; conditions: 2 h incubation at 37° C.
Procedure: (§1) The cell-based effects of a compound described herein on the immunoproteasome were determined by measuring inhibition of proteasome activity in cells using the Proteasome-Glo™ Cell-Based Reagent (Promega, Madison WI). The Proteasome-Glo™ assay contains a specific luminogenic proteasome substrate in a buffer optimized for cell permeabilization, proteasome activity, and luciferase activity. For the chymotrypsin-like activity (LMP7 and β5c), the peptide substrate is Suc-LLVY-aminoluciferin (Succinyl-leucine-leucine-valine-tyrosine-aminoluciferin). Cleavage of the substrate by proteasome results in luminescent signal which is proportional to the proteasome activity. The cell line THP-1 (a monocytic leukemia cell line enriched in immunoproteasome), the cell line HT-29 (a colorectal adenocarcinoma cell line enriched in constitutive proteasome), and primary human peripheral blood mononuclear cells (PBMC) were used to assess proteasome activity. Cells were seeded in a 96-well plate at 10,000 cells per well in RPMI 1640 high glucose medium with 10% fetal bovine scrum (FBS). Compound dilutions were added to cells starting at a concentration of 5 uM and decreasing in tripling dilutions. The final DMSO concentration was 1%. The concentration range was adjusted as needed for compounds of different potencies. The cells treated with compounds were incubated for 2 h at 37° C. in 5% CO2. At the end of the 2 hour incubation period, cells were transferred to white 384 well assay plates. 20 uL of Proteasome-Glo™ Reagent was added to each well and incubated for 10 minutes at rt. The plate was read in the Analyst HT instrument (Molecular Devices, Sunnyvale, CA) using luminescence mode. The percent inhibition of activity was plotted as a function of log compound concentration. The IC50 was then calculated for each compound using Prism software from GraphPad Software Inc. (San Diego, CA).

HT29/B5c [10] = target: T2, HT29/B5c (Homo sapiens, UniProt P28074); test: Proteasome-Glo inhibition of proteasome activity in cells, HT29/B5c; format: cell-based; conditions: HT-29 cells, 2 h incubation at 37° C.
Procedure: as §1

[11] = target: immunoproteasome LPM2/β1i subunit (Homo sapiens, UniProt P28065); test: Caliper-based proteasome enzymatic activity assay, LMP2; format: biochemical; conditions: human recombinant immunoproteasome 0.3 nM, FAM-labeled peptide substrate 1 μM, rt 2 h
PBMC/LMP2 [12] = target: T3, PBMC/LMP2 (Homo sapiens, UniProt P28065); test: Proteasome-Glo inhibition of proteasome activity in cells, PBMC/LMP2; format: cell-based; conditions: 2 h incubation at 37° C.
HT29/B5c [13] = target: T2, HT29/B5c; test: Durability of binding in cells, wash-out assay, HT29/B5c; format: cell-based; conditions: 2 h incubation, inhibitor washout
Procedure: (§2) The durability of binding of proteasome inhibitors was assessed in cells using wash-out assays and the Proteasome-Glo™ Reagent kit. THP-1 cells. HT-29 cells, or PBMC were incubated with an 8-fold dilution series of inhibitor for 2 h. Following 2 h of incubation, cells were washed using 3 occasions of centrifugation followed by resuspension in culture medium. Following inhibitor washout, cells were returned to culture for either 30 minutes, 4 h, or 18 h. Cells were then transferred to white 384 plates, and 20 uL of Proteasome-Glo™ Reagent was added to each well for 10 minutes. Plates were then read on an Analyst HT plate reader using luminescence mode. The percent inhibition of activity was plotted as a function of log compound concentration. The IC50 was then calculated for each compound using Prism software from GraphPad.

PBMC/LMP2 [14] = target: T3, PBMC/LMP2; test: Durability of binding in cells, wash-out assay, PBMC/LMP2; format: cell-based; conditions: 2 h incubation, inhibitor washout
Procedure: as §2

PBMC/LMP7 [15] = target: T1, PBMC/LMP7; test: Durability of binding in cells, wash-out assay, PBMC/LMP7; format: cell-based; conditions: 2 h incubation, inhibitor washout
Procedure: as §2

prostate PC-3 cell line = conditions: PC-3 cell line in vitro; cited from earlier work
tumor growth = conditions: in vivo; cited from earlier work

Row | Structure (SMILES) | IC50 [7] [nM] | IC50 [8] [nM] | IC50 (PBMC/LMP7 [9]) [nM] | IC50 [11] [nM] | also measured
1 | CC1=C(C(=O)N[C@H](C)C(=O)N[C@@H](Cc2c[nH]c3ccccc23)C(=O)N[C@@H](Cc2ccccc2)C(=O)[C@@]2(C)CO2)Cc2ccccc21 [PR-924] | – | – | – | – | growth of multiple myeloma cell lines and primary patient tumor cells [1]: inhibit growth
2 | COc1ccc(C[C@H](NC(=O)[C@H](C)NC(=O)CN2CCOCC2)C(=O)N[C@@H](Cc2ccccc2)C(=O)[C@@]2(C)CO2)cc1 [PR-957] | – | – | – | – | efficacy [2]: efficacious; inflammation and tissue destruction [3]: reduced inflammation and tissue destruction; disease progression (MRL/lpr lupus model): prevented disease progression; plasma cell numbers and anti-dsDNA IgG levels (MRL/lpr lupus model): reduced plasma cell numbers and anti-dsDNA IgG levels; disease activity [4]: significantly inhibit disease activity; Th1/17 differentiation (Th1/17 differentiation [5]): potently block; Th1/17 differentiation (Th1/17 differentiation [6]): potently block
3 | N#CC(=CC1CC1)C(=O)N1CCC[C@@H]1COC[C@H](NCC(F)(F)F)C(=O)N[C@@H](Cc1ccccc1)B(O)O [Example 22, (R)-1-((S)-3-(((R)-1-(2-cyano-3-cyclopropylacryloyl)pyrrolidin-2-yl)methoxy)-2-(2,2,2-trifluoroethylamino)propanamido)-2-phenylethylboronic acid] | 22 | 308 | 39 | – | –
4 | CC(C)C=C(C#N)C(=O)NCCCC[C@H](NCC(F)(F)F)C(=O)N[C@@H](Cc1ccccc1)B(O)O [Example 13, ((R)-1-((S)-6-(2-cyano-4-methylpent-2-enamido)-2-((2,2,2-trifluoroethyl)amino)hexanamido)-2-phenylethyl)boronic acid] | 67.1 | 292 | 50 | > 5000 | IC50 (HT29/B5c [10]): 242 nM
5 | CC(C)C=C(C#N)C(=O)N1CCC[C@@H]1CNC(=O)N[C@@H](Cc1ccccc1)B(O)O [Example 32, ((R)-1-(3-(((R)-1-(2-cyano-4-methylpent-2-enoyl)pyrrolidin-2-yl)methyl)ureido)-2-phenylethyl)boronic acid] | 37.2 | > 5000 | 110 | > 5000 | –
6 | CC(C)C=C(C#N)C(=O)N1CCC(CCCC(=O)N[C@@H](Cc2ccccc2)B(O)O)CC1 [Example 29, (R)-(1-(4-(1-(2-cyano-4-methylpent-2-enoyl)piperidin-4-yl)butanamido)-2-phenylethyl)boronic acid] | 319 | 964 | 307 | > 5000 | IC50 (HT29/B5c [10]): 3590 nM
7 | CCCCCCC(=O)N[C@@H](C)C(=O)N[C@@H](CC(C)C)C(=O)[C@@]1(CO[Si](C)(C)C(C)(C)C)CO1 [UK-101] | – | – | – | – | apoptosis (prostate PC-3 cell line): induced apoptosis; tumor growth (tumor growth): significantly suppressed tumor growth

The next lines start with results.

Row | IC50 [7] [nM] | IC50 [8] [nM] | IC50 (PBMC/LMP7 [9]) [nM] | IC50 [11] [nM] | Structure (SMILES) | also measured
8 | 2.6 | 4 | 390 | – | CC(=O)N[C@@H](CCCCNC(=O)C(C#N)=CC(C)C)C(=O)N[C@@H](Cc1ccccc1)B(O)O [Example 11, ((R)-1-((S)-2-acetamido-6-(2-cyano-4-methylpent-2-enamido)hexanamido)-2-phenylethyl)boronic acid] | –
9 | 2.4 | 8.1 | 34 | 483 | CC(C)C=C(C#N)C(=O)N(C)c1cccc(C[C@H](NC(=O)c2cc(Cl)ccc2Cl)C(=O)N[C@@H](Cc2ccccc2)B(O)O)c1 [Example 20, ((R)-1-((S)-3-(3-(2-cyano-N,4-dimethylpent-2-enamido)phenyl)-2-(2,5-dichlorobenzamido)propanamido)-2-phenylethyl)boronic acid] | IC50 (PBMC/LMP2 [12]): 208 nM
10 | 1.7 | 2.4 | 31 | 138 | CC(C)C=C(C#N)C(=O)N1CCC[C@@H]1COC[C@H](NC(=O)c1cc(Cl)ccc1Cl)C(=O)N[C@@H](Cc1ccccc1)B(O)O [Example 14, ((R)-1-((S)-3-(((R)-1-(2-cyano-4-methylpent-2-enoyl)pyrrolidin-2-yl)methoxy)-2-(2,5-dichlorobenzamido)propanamido)-2-phenylethyl)boronic acid] | IC50 (HT29/B5c [13]; 30 min in culture): 82 nM; IC50 (HT29/B5c [13]; 4 hr in culture): 87 nM; IC50 (HT29/B5c [13]; 18 hr in culture): 1850 nM; IC50 (HT29/B5c [10]): 60 nM; IC50 (PBMC/LMP2 [12]): 274 nM; IC50 (PBMC/LMP2 [14]; 30 min in culture): 27 nM; IC50 (PBMC/LMP2 [14]; 4 hr in culture): 505 nM; IC50 (PBMC/LMP2 [14]; 18 hr in culture): 2960 nM; IC50 (PBMC/LMP7 [15]; 30 min in culture): 50 nM; IC50 (PBMC/LMP7 [15]; 4 hr in culture): 93 nM; IC50 (PBMC/LMP7 [15]; 18 hr in culture): 146 nM
11 | 2.4 | 4.4 | 39 | 79 | CC(C)C=C(C#N)C(=O)NCCCC[C@H](NC(=O)c1cc(Cl)ccc1Cl)C(=O)N[C@@H](Cc1ccccc1)B(O)O [Example 8, ((R)-1-((S)-6-(2-cyano-4-methylpent-2-enamido)-2-(2,5-dichlorobenzamido)hexanamido)-2-phenylethyl)boronic acid] | –
12 | 2.5 | 21.1 | 73 | – | CC(C)C=C(C#N)C(=O)N(C)c1cccc(C[C@H](NC(=O)c2cnccn2)C(=O)N[C@@H](Cc2ccccc2)B(O)O)c1 [Example 21, ((R)-1-((S)-3-(3-(2-cyano-N,4-dimethylpent-2-enamido)phenyl)-2-(pyrazine-2-carboxamido)propanamido)-2-phenylethyl)boronic acid] | –
13 | 10 | 411 | 28 | 701 | CC(C)C=C(C#N)C(=O)N1CCCC[C@@H]1COC[C@H](NCC(F)(F)F)C(=O)N[C@@H](Cc1ccccc1)B(O)O [Example 25, ((R)-1-((S)-3-(((R)-1-(2-cyano-4-methylpent-2-enoyl)piperidin-2-yl)methoxy)-2-((2,2,2-trifluoroethyl)amino)propanamido)-2-phenylethyl)boronic acid] | –
14 | 4.3 | 5 | 35 | 2.7 | C=CC(=O)N(C)c1cccc(C[C@H](NC(=O)c2cc(Cl)ccc2Cl)C(=O)N[C@@H](Cc2ccccc2)B(O)O)c1 [Example 15, ((R)-1-((S)-2-(2,5-dichlorobenzamido)-3-(3-(N-methylacrylamido)phenyl)propanamido)-2-phenylethyl)boronic acid] | IC50 (HT29/B5c [10]): 141 nM

From patent US12312370B2, “Immunoproteasome inhibitors” (Principia Biopharma Inc., priority 2017, dated 2025)
